Data reported in BindingDB's records for doi:10.1021/acs.biochem.5b01128 (University College London, 2016).

What was measured:
Assay in all cases: Kinase Inhibition Assay
[1] = molecular target: Dual specificity protein kinase CLK1 (Homo sapiens, UniProt P49759)
[2] = molecular target: Dual specificity protein kinase CLK3 (Homo sapiens, UniProt P49761)
[3] = molecular target: Dual specificity tyrosine-phosphorylation-regulated kinase 1A (Homo sapiens, UniProt Q13627)
[4] = molecular target: Dual specificity protein kinase CLK2 (Homo sapiens, UniProt P49760)
Chain of Dual specificity protein kinase CLK2 (P49760 whole entry): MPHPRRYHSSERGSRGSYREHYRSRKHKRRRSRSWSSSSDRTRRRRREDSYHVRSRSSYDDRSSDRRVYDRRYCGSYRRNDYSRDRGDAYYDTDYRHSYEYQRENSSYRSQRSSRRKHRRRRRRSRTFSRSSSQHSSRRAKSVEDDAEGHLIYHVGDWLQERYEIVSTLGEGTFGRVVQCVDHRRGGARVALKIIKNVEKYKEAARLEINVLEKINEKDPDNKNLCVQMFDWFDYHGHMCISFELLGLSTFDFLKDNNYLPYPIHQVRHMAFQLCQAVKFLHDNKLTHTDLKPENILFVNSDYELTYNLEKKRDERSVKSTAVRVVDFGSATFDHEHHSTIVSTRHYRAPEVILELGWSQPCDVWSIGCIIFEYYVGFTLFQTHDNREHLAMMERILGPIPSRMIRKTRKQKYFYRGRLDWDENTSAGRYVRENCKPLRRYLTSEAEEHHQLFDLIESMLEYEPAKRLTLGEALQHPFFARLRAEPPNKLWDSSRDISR

Chain of Dual specificity protein kinase CLK1 (P49759 whole entry): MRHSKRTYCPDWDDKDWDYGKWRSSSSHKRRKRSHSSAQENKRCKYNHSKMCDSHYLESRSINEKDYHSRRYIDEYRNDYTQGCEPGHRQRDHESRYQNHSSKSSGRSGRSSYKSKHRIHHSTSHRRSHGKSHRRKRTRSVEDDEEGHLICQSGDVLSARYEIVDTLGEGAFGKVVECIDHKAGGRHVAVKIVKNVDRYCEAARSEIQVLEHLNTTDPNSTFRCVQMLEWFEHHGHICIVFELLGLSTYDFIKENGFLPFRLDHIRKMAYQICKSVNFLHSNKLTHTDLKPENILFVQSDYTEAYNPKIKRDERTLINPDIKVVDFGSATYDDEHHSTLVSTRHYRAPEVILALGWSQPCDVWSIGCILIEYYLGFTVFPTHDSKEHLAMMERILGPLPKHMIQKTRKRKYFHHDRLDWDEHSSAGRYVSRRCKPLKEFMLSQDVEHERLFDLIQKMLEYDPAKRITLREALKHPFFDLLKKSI
Chain of Dual specificity protein kinase CLK3 (P49761 as listed by the source): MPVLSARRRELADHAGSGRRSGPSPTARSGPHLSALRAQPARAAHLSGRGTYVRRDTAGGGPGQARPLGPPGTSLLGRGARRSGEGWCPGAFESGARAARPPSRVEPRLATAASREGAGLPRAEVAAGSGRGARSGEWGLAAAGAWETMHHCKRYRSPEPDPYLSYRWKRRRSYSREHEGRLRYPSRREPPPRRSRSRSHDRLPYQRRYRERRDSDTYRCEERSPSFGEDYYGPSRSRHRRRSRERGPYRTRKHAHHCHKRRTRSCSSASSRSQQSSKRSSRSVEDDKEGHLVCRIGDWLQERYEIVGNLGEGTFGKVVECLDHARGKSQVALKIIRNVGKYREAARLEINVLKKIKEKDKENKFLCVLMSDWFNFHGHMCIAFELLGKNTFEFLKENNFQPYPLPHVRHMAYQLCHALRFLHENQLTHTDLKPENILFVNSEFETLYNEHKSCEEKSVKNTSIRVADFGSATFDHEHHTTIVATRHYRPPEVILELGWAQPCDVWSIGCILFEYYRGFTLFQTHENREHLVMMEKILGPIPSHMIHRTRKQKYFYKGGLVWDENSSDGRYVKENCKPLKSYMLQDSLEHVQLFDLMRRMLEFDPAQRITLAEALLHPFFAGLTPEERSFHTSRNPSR

IC50 [1] | IC50 [2] | IC50 [3] | IC50 [4] | SMILES
277 nM | > 3000 nM | 334 nM | 174 nM | CSc1nc2ccc3nc(NC(=O)c4ccco4)sc3c2s1 [5E4]
51 nM | 346 nM | 260 nM | 68 nM | Cc1nc2ccc3sc(NC(=O)c4ccc5ncsc5c4)nc3c2s1 [3A5]
390 nM | > 3000 nM | – | 553 nM | O=C1N=C(NCc2cccs2)S/C1=C/c1ccc2ncccc2c1 [NR9]
273 nM | > 3000 nM | 213 nM | 127 nM | CSc1nc2ccc3nc(NC(=O)c4ccc(S(=O)(=O)N5CCOCC5)cc4)sc3c2s1 [5F4]
